Results from ChEMBL document CHEMBL5375952, “Discovery of Novel 8-Hydroxyquinoline Derivatives with Potent In Vitro and In Vivo Antifungal Activity” (J Med Chem, 2023).
In brackets after ≈: the same amount, converted by molar mass.

Key:
Cryptococcus neoformans [1] = experiment: Antifungal activity against Cryptococcus neoformans HN17 assessed as fungal growth inhibition incubated for 48 hrs by broth microdilution method; format: functional
Nakaseomyces glabratus [2] = experiment: Antifungal activity against Candida glabrata 201 assessed as fungal growth inhibition incubated for 48 hrs by broth microdilution method; format: functional
Cryptococcus neoformans [3] = experiment: Antifungal activity against Cryptococcus neoformans HN19 assessed as fungal growth inhibition incubated for 48 hrs by broth microdilution method; format: functional
Cryptococcus neoformans [4] = experiment: Antifungal activity against Cryptococcus neoformans 444 assessed as fungal growth inhibition incubated for 48 hrs by broth microdilution method; format: functional
Pichia kudriavzevii [5] = experiment: Antifungal activity against Candida krusei 472 assessed as fungal growth inhibition incubated for 48 hrs by broth microdilution method; format: functional
Pichia kudriavzevii [6] = experiment: Antifungal activity against Candida krusei 68 assessed as fungal growth inhibition incubated for 48 hrs by broth microdilution method; format: functional
Cryptococcus neoformans [7] = experiment: Antifungal activity against Cryptococcus neoformans HN2-40 assessed as fungal growth inhibition incubated for 48 hrs by broth microdilution method; format: functional
Candida albicans [8] = experiment: Antifungal activity against Candida albicans 337 assessed as fungal growth inhibition incubated for 48 hrs by broth microdilution method; format: functional
Candida albicans [9] = experiment: Antifungal activity against Candida albicans 338 assessed as fungal growth inhibition incubated for 48 hrs by broth microdilution method; format: functional
Cryptococcus neoformans [10] = experiment: Antifungal activity against Cryptococcus neoformans 443 assessed as fungal growth inhibition incubated for 48 hrs by broth microdilution method; format: functional
Cryptococcus neoformans [11] = experiment: Antifungal activity against Cryptococcus neoformans 56992 assessed as fungal growth inhibition incubated for 48 hrs by broth microdilution method; format: functional
Aspergillus fumigatus [12] = experiment: Antifungal activity against Aspergillus fumigatus A assessed as fungal growth inhibition incubated for 48 hrs by broth microdilution method; format: functional
[Candida] auris [13] = Antifungal activity against Candida auris 277 assessed as fungal growth inhibition incubated for 48 hrs by broth microdilution method; format: functional; settings: Candidozyma auris
Candida albicans [14] = experiment: Antifungal activity against Candida albicans 21 assessed as fungal growth inhibition incubated for 48 hrs by broth microdilution method; format: functional
Cryptococcus neoformans [15] = experiment: Antifungal activity against Cryptococcus neoformans HN1 assessed as fungal growth inhibition incubated for 48 hrs by broth microdilution method; format: functional
Candida parapsilosis [16] = experiment: Antifungal activity against Candida parapsilosis 106 assessed as fungal growth inhibition incubated for 48 hrs by broth microdilution method; format: functional; settings: Lodderomyces parapsilosis
[17] = Antifungal activity against Cryptococcus gattii SCZ20024 assessed as fungal growth inhibition incubated for 48 hrs by broth microdilution method; format: functional, Cryptococcus gattii VGI
Cryptococcus neoformans [18] = experiment: Antifungal activity against Cryptococcus neoformans HN15 assessed as fungal growth inhibition incubated for 48 hrs by broth microdilution method; format: functional
Candida albicans [19] = experiment: Antifungal activity against Candida albicans 25 assessed as fungal growth inhibition incubated for 48 hrs by broth microdilution method; format: functional
[20] = Antifungal activity against Cryptococcus gattii WM178 assessed as fungal growth inhibition incubated for 48 hrs by broth microdilution method; format: functional, Cryptococcus gattii VGI
Candida tropicalis [21] = experiment: Antifungal activity against Candida tropicalis 172 assessed as fungal growth inhibition incubated for 48 hrs by broth microdilution method; format: functional
Candida albicans [22] = experiment: Antifungal activity against Candida albicans 22 assessed as fungal growth inhibition incubated for 48 hrs by broth microdilution method; format: functional
Candida parapsilosis [23] = experiment: Antifungal activity against Candida parapsilosis ATCC22019 assessed as fungal growth inhibition incubated for 48 hrs by broth microdilution method; format: functional; settings: Lodderomyces parapsilosis
Cryptococcus neoformans [24] = experiment: Antifungal activity against Cryptococcus neoformans BJ3 assessed as fungal growth inhibition incubated for 48 hrs by broth microdilution method; format: functional
Cryptococcus neoformans [25] = experiment: Antifungal activity against Cryptococcus neoformans HN20 assessed as fungal growth inhibition incubated for 48 hrs by broth microdilution method; format: functional
Pichia kudriavzevii [26] = experiment: Antifungal activity against Candida krusei 471 assessed as fungal growth inhibition incubated for 48 hrs by broth microdilution method; format: functional
Candida tropicalis [27] = experiment: Antifungal activity against Candida tropicalis 184 assessed as fungal growth inhibition incubated for 48 hrs by broth microdilution method; format: functional
[Candida] auris [28] = Antifungal activity against Candida auris 278 assessed as fungal growth inhibition incubated for 48 hrs by broth microdilution method; format: functional; settings: Candidozyma auris
Candida albicans [29] = experiment: Antifungal activity against Candida albicans SC5314 assessed as fungal growth inhibition incubated for 48 hrs by broth microdilution method; format: functional
Nakaseomyces glabratus [30] = experiment: Antifungal activity against Candida glabrata 222 assessed as fungal growth inhibition incubated for 48 hrs by broth microdilution method; format: functional
[31] = Antifungal activity against Cryptococcus gattii WM179 assessed as fungal growth inhibition incubated for 48 hrs by broth microdilution method; format: functional, Cryptococcus gattii VGI
[Candida] auris [32] = Antifungal activity against Candida auris 887 assessed as fungal growth inhibition incubated for 48 hrs by broth microdilution method; format: functional; settings: Candidozyma auris
Nakaseomyces glabratus [33] = experiment: Antifungal activity against Candida glabrata 202 assessed as fungal growth inhibition incubated for 48 hrs by broth microdilution method; format: functional
[34] = Antifungal activity against Cryptococcus gattii SCZ20031 assessed as fungal growth inhibition incubated for 48 hrs by broth microdilution method; format: functional, Cryptococcus gattii VGI
Aspergillus fumigatus [35] = experiment: Antifungal activity against Aspergillus fumigatus 7544 assessed as fungal growth inhibition incubated for 48 hrs by broth microdilution method; format: functional
Candida tropicalis [36] = experiment: Antifungal activity against Candida tropicalis 176 assessed as fungal growth inhibition incubated for 48 hrs by broth microdilution method; format: functional
Candida parapsilosis [37] = experiment: Antifungal activity against Candida parapsilosis 104 assessed as fungal growth inhibition incubated for 48 hrs by broth microdilution method; format: functional; settings: Lodderomyces parapsilosis
Cryptococcus neoformans [38] = experiment: Antifungal activity against Cryptococcus neoformans SH68 assessed as fungal growth inhibition incubated for 48 hrs by broth microdilution method; format: functional
[Candida] auris [39] = Antifungal activity against Candida auris CBS 12372 assessed as fungal growth inhibition incubated for 48 hrs by broth microdilution method; format: functional; settings: Candidozyma auris
Pichia kudriavzevii [40] = experiment: Antifungal activity against Candida krusei 474 assessed as fungal growth inhibition incubated for 48 hrs by broth microdilution method; format: functional
Cryptococcus neoformans [41] = experiment: Antifungal activity against Cryptococcus neoformans H99 assessed as fungal growth inhibition incubated for 48 hrs by broth microdilution method; format: functional
Nakaseomyces glabratus [42] = experiment: Antifungal activity against Candida glabrata 204 assessed as fungal growth inhibition incubated for 48 hrs by broth microdilution method; format: functional
Candida tropicalis [43] = experiment: Antifungal activity against Candida tropicalis 178 assessed as fungal growth inhibition incubated for 48 hrs by broth microdilution method; format: functional
Candida tropicalis [44] = experiment: Antifungal activity against Candida tropicalis 182 assessed as fungal growth inhibition incubated for 48 hrs by broth microdilution method; format: functional
[Candida] auris [45] = Antifungal activity against Candida auris 276 assessed as fungal growth inhibition incubated for 48 hrs by broth microdilution method; format: functional; settings: Candidozyma auris
Cryptococcus neoformans [46] = experiment: Antifungal activity against Cryptococcus neoformans 445 assessed as fungal growth inhibition incubated for 48 hrs by broth microdilution method; format: functional
[47] = Antifungal activity against Cryptococcus gattii E566 assessed as fungal growth inhibition incubated for 48 hrs by broth microdilution method; format: functional, Cryptococcus gattii VGI
Candida parapsilosis [48] = experiment: Antifungal activity against Candida parapsilosis 125 assessed as fungal growth inhibition incubated for 48 hrs by broth microdilution method; format: functional; settings: Lodderomyces parapsilosis
Cryptococcus neoformans [49] = experiment: Antifungal activity against Cryptococcus neoformans HN2 assessed as fungal growth inhibition incubated for 48 hrs by broth microdilution method; format: functional
Pichia kudriavzevii [50] = experiment: Antifungal activity against Candida krusei 477 assessed as fungal growth inhibition incubated for 48 hrs by broth microdilution method; format: functional
Nakaseomyces glabratus [51] = experiment: Antifungal activity against Candida glabrata 205 assessed as fungal growth inhibition incubated for 48 hrs by broth microdilution method; format: functional
Candida parapsilosis [52] = experiment: Antifungal activity against Candida parapsilosis 105 assessed as fungal growth inhibition incubated for 48 hrs by broth microdilution method; format: functional; settings: Lodderomyces parapsilosis
Aspergillus fumigatus [53] = experiment: Antifungal activity against Aspergillus fumigatus 023-12 assessed as fungal growth inhibition incubated for 48 hrs by broth microdilution method; format: functional

## Oc1c(I)cc(Cl)c2cccnc12 [CLIOQUINOL]
Cryptococcus neoformans [1]
  MIC: 0.125 µg/mL (≈ 0.409 µM)
Nakaseomyces glabratus [2]
  MIC: 0.125 µg/mL (≈ 0.409 µM)
Cryptococcus neoformans [3]
  MIC: 0.063 µg/mL (≈ 0.206 µM)
Cryptococcus neoformans [4]
  MIC: 0.125 µg/mL (≈ 0.409 µM)
Pichia kudriavzevii [5]
  MIC: 0.125 µg/mL (≈ 0.409 µM)
Pichia kudriavzevii [6]
  MIC: 0.25 µg/mL (≈ 0.818 µM)
Cryptococcus neoformans [7]
  MIC: 0.063 µg/mL (≈ 0.206 µM)
Candida albicans [8]
  MIC: 0.125 µg/mL (≈ 0.409 µM)
Candida albicans [9]
  MIC: 0.125 µg/mL (≈ 0.409 µM)
Cryptococcus neoformans [10]
  MIC: 0.125 µg/mL (≈ 0.409 µM)
Cryptococcus neoformans [11]
  MIC: 0.063 µg/mL (≈ 0.206 µM)
Aspergillus fumigatus [12]
  MIC: 0.25 µg/mL (≈ 0.818 µM)
[Candida] auris [13]
  MIC: 0.063 µg/mL (≈ 0.206 µM)
Candida albicans [14]
  MIC: 0.125 µg/mL (≈ 0.409 µM)
Cryptococcus neoformans [15]
  MIC: 0.125 µg/mL (≈ 0.409 µM)
Candida parapsilosis [16]
  MIC: 0.25 µg/mL (≈ 0.818 µM)
[17]
  MIC: 0.031 µg/mL (≈ 0.101 µM)
Cryptococcus neoformans [18]
  MIC: 0.125 µg/mL (≈ 0.409 µM)
Candida albicans [19]
  MIC: 0.125 µg/mL (≈ 0.409 µM)
[20]
  MIC: 0.031 µg/mL (≈ 0.101 µM)
Candida tropicalis [21]
  MIC: 0.125 µg/mL (≈ 0.409 µM)
Candida albicans [22]
  MIC: 0.125 µg/mL (≈ 0.409 µM)
Candida parapsilosis [23]
  MIC: 0.5 µg/mL (≈ 1.64 µM)
Cryptococcus neoformans [24]
  MIC: 0.063 µg/mL (≈ 0.206 µM)
Cryptococcus neoformans [25]
  MIC: 0.063 µg/mL (≈ 0.206 µM)
Pichia kudriavzevii [26]
  MIC: 0.25 µg/mL (≈ 0.818 µM)
Candida tropicalis [27]
  MIC: 0.125 µg/mL (≈ 0.409 µM)
[Candida] auris [28]
  MIC: 0.125 µg/mL (≈ 0.409 µM)
Candida albicans [29]
  MIC: 0.125 µg/mL (≈ 0.409 µM)
Nakaseomyces glabratus [30]
  MIC: 0.25 µg/mL (≈ 0.818 µM)
[31]
  MIC: 0.031 µg/mL (≈ 0.101 µM)
[Candida] auris [32]
  MIC: 0.5 µg/mL (≈ 1.64 µM)
Nakaseomyces glabratus [33]
  MIC: 0.125 µg/mL (≈ 0.409 µM)
[34]
  MIC: 0.031 µg/mL (≈ 0.101 µM)
Aspergillus fumigatus [35]
  MIC: 0.25 µg/mL (≈ 0.818 µM)
Candida tropicalis [36]
  MIC: 0.032 µg/mL (≈ 0.105 µM)
Candida parapsilosis [37]
  MIC: 0.125 µg/mL (≈ 0.409 µM)
Cryptococcus neoformans [38]
  MIC: 0.125 µg/mL (≈ 0.409 µM)
[Candida] auris [39]
  MIC: 0.063 µg/mL (≈ 0.206 µM)
Pichia kudriavzevii [40]
  MIC: 0.25 µg/mL (≈ 0.818 µM)
Cryptococcus neoformans [41]
  MIC: 0.125 µg/mL (≈ 0.409 µM)
Nakaseomyces glabratus [42]
  MIC: 0.125 µg/mL (≈ 0.409 µM)
Candida tropicalis [43]
  MIC: 0.125 µg/mL (≈ 0.409 µM)
Candida tropicalis [44]
  MIC: 0.125 µg/mL (≈ 0.409 µM)
[Candida] auris [45]
  MIC: 0.063 µg/mL (≈ 0.206 µM)
Cryptococcus neoformans [46]
  MIC: 0.063 µg/mL (≈ 0.206 µM)
[47]
  MIC: 0.031 µg/mL (≈ 0.101 µM)
Candida parapsilosis [48]
  MIC: 0.25 µg/mL (≈ 0.818 µM)
Cryptococcus neoformans [49]
  MIC: 0.125 µg/mL (≈ 0.409 µM)
Pichia kudriavzevii [50]
  MIC: 0.25 µg/mL (≈ 0.818 µM)
Nakaseomyces glabratus [51]
  MIC: 0.25 µg/mL (≈ 0.818 µM)
Candida parapsilosis [52]
  MIC: 0.25 µg/mL (≈ 0.818 µM)
Aspergillus fumigatus [53]
  MIC: 0.25 µg/mL (≈ 0.818 µM)
